{"source": "patent US20260284201A1", "about": "“COMPOSITIONS AND METHODS FOR TREATING TENDON AND BONE INJURIES” (The United States Government as represented by the …, priority 2023, published 2026)", "key": {"[1]": {"tested_on": "canine tendon-to-bone healing", "conditions": "cited from earlier work"}, "[2]": {"tested_on": "osteoclasts", "conditions": "cited from earlier work"}, "[3]": {"tested_on": "osteoporotic rats", "conditions": "cited from earlier work"}, "[4]": {"tested_on": "rat rotator cuff repairs", "conditions": "cited from earlier work"}, "[5]": {"tested_on": "osteoporotic mouse model", "conditions": "1.25 mg/kg intravenously; cited from earlier work"}, "[6]": {"tested_on": "mice in space", "assay": "Bone volume among mice in space (unpublished data)", "type": "in vivo", "conditions": "10 mg/kg once per week"}, "[7]": {"tested_on": "fracture healing", "conditions": "1.25 mg/kg systemically once per week; cited from earlier work"}}}
{"molecule": "NCCCC(O)(P(=O)(O)O)P(=O)(O)O", "note": "[alendronate]", "values": [{"measurement": "incidence of suture pull through tendon", "setting": "[1]", "result": "lower incidence of suture pull through tendon"}, {"measurement": "ultimate load to failure", "setting": "[1]", "result": "improved ultimate load to failure"}]}
{"molecule": "CC(O)(P(=O)(O)O)P(=O)(O)O", "note": "[etidronate]", "values": [{"measurement": "inhibition of the function of osteoclasts", "setting": "[2]", "result": "do not inhibit the function of osteoclasts"}]}
{"molecule": "O=P(O)(O)C(O)(Cc1cccnc1)P(=O)(O)O", "note": "[risedronate]", "values": [{"measurement": "rotator cuff healing", "setting": "[3]", "result": "beneficial to rotator cuff healing"}]}
{"molecule": "O=P(O)(O)C(O)(Cn1ccnc1)P(=O)(O)O", "note": "[zolendronate]", "values": [{"measurement": "tendon-to-bone healing", "setting": "[4]", "result": "negative effects on tendon-to-bone healing"}]}
{"molecule": "methylhydroxyl diphosphonate", "values": [{"measurement": "inhibition of the function of osteoclasts", "setting": "[2]", "result": "do not inhibit the function of osteoclasts"}]}
{"molecule": "rhNELL-1: recombinant human NELL-1 (protein, UniProt Q92832 22-810, looked up) Protein kinase C-binding …: FGMDPDLQMDIVTELDLVNTTLGVAQVSGMHNASKAFLFQDIEREIHAAPHVSEKLIQLFRNKSEFTILATVQQKPSTSGVILSIRELEHSYFELESSGLRDEIRYHYIHNGKPRTEALPYRMADGQWHKVALSVSASHLLLHVDCNRIYERVIDPPDTNLPPGINLWLGQRNQKHGLFKGIIQDGKIIFMPNGYITQCPNLNHTCPTCSDFLSLVQGIMDLQELLAKMTAKLNYAETRLSQLENCHCEKTCQVSGLLYRDQDSWVDGDHCRNCTCKSGAVECRRMSCPPLNCSPDSLPVHIAGQCCKVCRPKCIYGGKVLAEGQRILTKSCRECRGGVLVKITEMCPPLNCSEKDHILPENQCCRVCRGHNFCAEGPKCGENSECKNWNTKATCECKSGYISVQGDSAYCEDIDECAAKMHYCHANTVCVNLPGLYRCDCVPGYIRVDDFSCTEHDECGSGQHNCDENAICTNTVQGHSCTCKPGYVGNGTICRAFCEEGCRYGGTCVAPNKCVCPSGFTGSHCEKDIDECSEGIIECHNHSRCVNLPGWYHCECRSGFHDDGTYSLSGESCIDIDECALRTHTCWNDSACINLAGGFDCLCPSGPSCSGDCPHEGGLKHNGQVWTLKEDRCSVCSCKDGKIFCRRTACDCQNPSADLFCCPECDTRVTSQCLDQNGHKLYRSGDNWTHSCQQCRCLEGEVDCWPLTCPNLSCEYTAILEGECCPRCVSDPCLADNITYDIRKTCLDSYGVSRLSGSVWTMAGSPCTTCKCKNGRVCCSVDFECLQNN", "values": [{"measurement": "bone formation", "setting": "[5]", "result": "lead to bone formation"}]}
{"molecule": "BP-NELL-1-PEG: NELL-1-PEG covalently bound to BP molecules (conjugate, UniProt Q92832 22-810, looked up, PEG; bisphosphonate conjugate) Protein kinase C-binding …: FGMDPDLQMDIVTELDLVNTTLGVAQVSGMHNASKAFLFQDIEREIHAAPHVSEKLIQLFRNKSEFTILATVQQKPSTSGVILSIRELEHSYFELESSGLRDEIRYHYIHNGKPRTEALPYRMADGQWHKVALSVSASHLLLHVDCNRIYERVIDPPDTNLPPGINLWLGQRNQKHGLFKGIIQDGKIIFMPNGYITQCPNLNHTCPTCSDFLSLVQGIMDLQELLAKMTAKLNYAETRLSQLENCHCEKTCQVSGLLYRDQDSWVDGDHCRNCTCKSGAVECRRMSCPPLNCSPDSLPVHIAGQCCKVCRPKCIYGGKVLAEGQRILTKSCRECRGGVLVKITEMCPPLNCSEKDHILPENQCCRVCRGHNFCAEGPKCGENSECKNWNTKATCECKSGYISVQGDSAYCEDIDECAAKMHYCHANTVCVNLPGLYRCDCVPGYIRVDDFSCTEHDECGSGQHNCDENAICTNTVQGHSCTCKPGYVGNGTICRAFCEEGCRYGGTCVAPNKCVCPSGFTGSHCEKDIDECSEGIIECHNHSRCVNLPGWYHCECRSGFHDDGTYSLSGESCIDIDECALRTHTCWNDSACINLAGGFDCLCPSGPSCSGDCPHEGGLKHNGQVWTLKEDRCSVCSCKDGKIFCRRTACDCQNPSADLFCCPECDTRVTSQCLDQNGHKLYRSGDNWTHSCQQCRCLEGEVDCWPLTCPNLSCEYTAILEGECCPRCVSDPCLADNITYDIRKTCLDSYGVSRLSGSVWTMAGSPCTTCKCKNGRVCCSVDFECLQNN", "values": [{"measurement": "bone volume", "setting": "[6]", "result": "preserve bone volume"}]}
{"molecule": "NELL-1-PEG: chemically modified version of NELL-1 protein using polyethylene glycol (PEGylation) (protein, UniProt Q92832 22-810, looked up, PEG) Protein kinase C-binding …: FGMDPDLQMDIVTELDLVNTTLGVAQVSGMHNASKAFLFQDIEREIHAAPHVSEKLIQLFRNKSEFTILATVQQKPSTSGVILSIRELEHSYFELESSGLRDEIRYHYIHNGKPRTEALPYRMADGQWHKVALSVSASHLLLHVDCNRIYERVIDPPDTNLPPGINLWLGQRNQKHGLFKGIIQDGKIIFMPNGYITQCPNLNHTCPTCSDFLSLVQGIMDLQELLAKMTAKLNYAETRLSQLENCHCEKTCQVSGLLYRDQDSWVDGDHCRNCTCKSGAVECRRMSCPPLNCSPDSLPVHIAGQCCKVCRPKCIYGGKVLAEGQRILTKSCRECRGGVLVKITEMCPPLNCSEKDHILPENQCCRVCRGHNFCAEGPKCGENSECKNWNTKATCECKSGYISVQGDSAYCEDIDECAAKMHYCHANTVCVNLPGLYRCDCVPGYIRVDDFSCTEHDECGSGQHNCDENAICTNTVQGHSCTCKPGYVGNGTICRAFCEEGCRYGGTCVAPNKCVCPSGFTGSHCEKDIDECSEGIIECHNHSRCVNLPGWYHCECRSGFHDDGTYSLSGESCIDIDECALRTHTCWNDSACINLAGGFDCLCPSGPSCSGDCPHEGGLKHNGQVWTLKEDRCSVCSCKDGKIFCRRTACDCQNPSADLFCCPECDTRVTSQCLDQNGHKLYRSGDNWTHSCQQCRCLEGEVDCWPLTCPNLSCEYTAILEGECCPRCVSDPCLADNITYDIRKTCLDSYGVSRLSGSVWTMAGSPCTTCKCKNGRVCCSVDFECLQNN", "values": [{"measurement": "ectopic bone formation, radiographically or on organ retrieval analysis", "setting": "[7]", "result": "no evidence of ectopic bone formation"}, {"measurement": "fracture healing", "setting": "[7]", "result": "enhance fracture healing"}, {"measurement": "toxicology testing", "setting": "[7]", "result": "no abnormalities detected on toxicology testing"}]}
